What follows are compounds tested against recombinant human Cathepsin S (Homo sapiens, UniProt P25774) (assay: Cathepsin S assay: inhibition of recombinant human Cathepsin S (Z-Val-Val-Arg-AMC fluorescence)).
Assay type: biochemical
Method: Cathepsin S Assay Procedure
25 μl of a 2 mg/l solution of activated recombinant human cathepsin S, in assay buffer, is then added to the well, yielding a final inhibitor concentration of 10 μM.
Enzyme activity is determined by measuring the fluorescence of the liberated aminomethylcoumarin at […] using 390 nm excitation, at 20 minutes. Percentage enzyme activity is calculated by comparison of this activity to that of a solution containing no inhibitor.

recombinant human Cathepsin S, sequence (P25774 115-331): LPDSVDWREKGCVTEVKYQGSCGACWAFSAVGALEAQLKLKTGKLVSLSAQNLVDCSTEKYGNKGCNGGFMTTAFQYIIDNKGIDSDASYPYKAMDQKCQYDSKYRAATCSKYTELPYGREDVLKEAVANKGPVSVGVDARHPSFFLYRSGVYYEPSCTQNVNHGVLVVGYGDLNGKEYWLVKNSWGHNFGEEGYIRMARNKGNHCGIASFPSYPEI

Row | SMILES | IC50 [nM]
1 | CCOc1ccc(-c2cc3[nH]cnc3c(C#N)n2)cc1C(F)(F)F [Example 1, 6-(4-Ethoxy-3-trifluoromethyl-phenyl)-1H-imidazo[4.5-c]pyridine-4-carbonitrile] | < 100
2 | CCOc1ccc(-c2cc3c(ncn3CC(=O)O)c(C#N)n2)cc1C(F)(F)F [Example 3, [4-Cyano-6-(4-ethoxy-3-trifluoromethyl-phenyl)-imidazo[4,5-c]pyridin-1-yl]-acetic acid] | < 100
3 | CCOc1ccc(-c2cc3[nH]c(CN4CCNC(=O)C4)nc3c(C#N)n2)cc1C(F)(F)F [Example 5d, 6-(4-Ethoxy-3-trifluoromethyl-phenyl)-2-(3-oxo-piperazine-1-ylmethyl)-1H-imidazo[4,5,c]pyridine-4-carbonitrile] | < 100
4 | CCOc1ccc(-c2cc3c(ncn3CCN3CCOCC3)c(C#N)n2)cc1C(F)(F)F [Example 9a, 6-(4-Ethoxy-3-trifluoromethyl-phenyl)-1-(2-morpholin-4-yl-ethyl)-1H-imidazo[4,5-c]pyridine-4-carbonitrile] | < 100
5 | CCOc1ccc(-c2cc3c(ncn3CCN3CCCCC3)c(C#N)n2)cc1C(F)(F)F [Example 9d, 6-(4-Ethoxy-3-trifluoromethyl-phenyl)-1-(2-piperidin-1-yl-ethyl)-1H-imidazo[4,5-c]-pyridine-4-carbonitrile] | < 100
6 | CCOc1ccc(-c2cc3c(ncn3CCN(C)C)c(C#N)n2)cc1C(F)(F)F [Example 9f, 1-(2-Dimethylamino-ethyl)-6-(4-ethoxy-3-trifluoromethyl-phenyl)-1H-imidazo [4,5-c]pyridine-4-carbonitrile] | < 100
7 | CCOc1ccc(-c2cc3c(ncn3CCCN3CCOCC3)c(C#N)n2)cc1C(F)(F)F [Example 10a, 6-(4-Ethoxy-3-trifluoromethyl-phenyl)-1-(3-morpholin-4-yl-propyl)-1H-imidazo[4,5-c]pyridine-4-carbonitrile] | < 100
8 | CCOc1ccc(-c2cc3c(ncn3CCCN(C)C)c(C#N)n2)cc1C(F)(F)F [Example 10f, 1-(3-Dimethylamino-propyl)-6-(4-ethoxy-3-trifluoromethyl-phenyl)-1H-imidazo-[4,5-c]pyridine-4-carbonitrile] | < 100
9 | CCOc1ccc(-c2cc3[nH]c(CN4CCN(C)CC4)nc3c(C#N)n2)cc1C(F)(F)F [Example 11a, 6-(4-Ethoxy-3-trifluoromethyl-phenyl)-2-(4-methyl-piperazin-1-ylmethyl)-1H-imidazo-[4,5-c]pyridine-4-carbonitrile] | < 100
10 | CCOc1ccc(-c2cc3[nH]c(CNCCO)nc3c(C#N)n2)cc1C(F)(F)F [Example 11h, 6-(4-Ethoxy-3-trifluoromethyl-phenyl)-2-[(2-hydroxy-ethylamino)-methyl]-1H-imidazo[4,5-c]pyridine-4-carbonitrile] | < 100
11 | CCOc1ccc(-c2cc3[nH]c(CN4CNC(=O)C4)nc3c(C#N)n2)cc1C(F)(F)F [Example 13d, 6-(4-Ethoxy-3-trifluoromethyl-phenyl)-2-(4-oxo-imidazolidin-1-ylmethyl)-1H-imidazo[4,5-c]pyridine-4-carbonitrile] | < 100
12 | CCOc1ccc(-c2cc3[nH]c(CN4CCN(CCOC)CC4)nc3c(C#N)n2)cc1C(F)(F)F [Example 13i, 6-(4-Ethoxy-3-trifluoromethyl-phenyl)-2-[4-(2-methoxy-ethyl)-piperazin-1-yl-methyl]-1H-imidazo[4,5-c]pyridine-4-carbonitrile] | < 100

— US7687515B2, “6-phenyl-1H-imidazo[4,5-c]pyridine-4-carbonitrile derivatives” (priority 2006, dated 2010)
